According to patent US20230416258A1, “BENZ[…], AND PREPARATION METHOD THEREFOR AND USE THEREOF” (CHINA PHARMACEUTICAL UNIVERSITY, priority 2020, published 2023):

Test system: KM mice
Test: Test for drug-induced disappearance of righting reflex in mice
Assay type: in vivo
Conditions: single rapid bolus via tail vein
Outline: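 Latency to, and duration of, righting reflex loss were recorded after one fast tail-vein bolus. Animals: randomized female KM mice weighing 18–25 g.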

SMILES	Duration (60 mg/kg) [min]	Latency (60 mg/kg) [min]	Duration (30 mg/kg) [min]	Latency (30 mg/kg) [min]
COC(=O)CC[C@@H]1N=C(c2ccccc2Cl)c2cc(Br)ccc2-n2c(SC3CCN(C)CC3)nnc21 [Compound 94, methyl (S)-3-(8-bromo-6-(2-chlorophenyl)-1-((1-methylpiperidin-4-yl)thio)-4H-benzo[f][1,2,4]triazolo[4,3-a][1,4]diazepin-4-yl)propionate]	13.85	0.61		
COC(=O)CC[C@@H]1N=C(c2ccccc2Cl)c2cc([N+](=O)[O-])ccc2-n2c(SC3CCN(C)CC3)nnc21 [Compound 95, methyl (S)-3-(8-nitro-6-(2-chlorophenyl)-1-((1-methylpiperidin-4-yl)thio)-4H-benzo[f][1,2,4]triazolo[4,3-a][1,4]diazepin-4-yl)propionate]			12.41	0.82
COC(=O)CC[C@@H]1N=C(c2ccccc2Cl)c2cc(Cl)ccc2-n2c(SCCCN3CCN(CCO)CC3)nnc21 [Compound 96, methyl (S)-3-(8-chloro-6-(2-chlorophenyl)-1-((3-(4-(2-hydroxyethyl)piperazin-1-yl)propyl)thio)-4H-benzo[f][1,2,4]triazolo[4,3-a][1,4]diazepin-4-yl)propionate]			7.98	0.49
COC(=O)CC[C@@H]1N=C(c2ccccc2Cl)c2cc([N+](=O)[O-])ccc2-n2c(SCCCN3CCN(CCO)CC3)nnc21 [Compound 98, methyl (S)-3-(8-nitro-6-(2-chlorophenyl)-1-((3-(4-(2-hydroxyethyl)piperazin-1-yl)propyl)thio)-4H-benzo[f][1,2,4]triazolo[4,3-a][1,4]diazepin-4-yl)propionate]			14.71	1.31
COC(=O)CC[C@@H]1N=C(c2ccccc2Cl)c2cc(Cl)ccc2-n2c(SCN3CCOCC3)nnc21 [Compound 99, methyl (S)-3-(8-chloro-6-(2-chlorophenyl)-1-((morpholinomethyl)thio)-4H-benzo[f][1,2,4]triazolo[4,3-a][1,4]diazepin-4-yl)propionate]	19.37	2.63		
COC(=O)CC[C@@H]1N=C(c2ccccc2Cl)c2cc(Br)ccc2-n2c(SCN3CCOCC3)nnc21 [Compound 100, methyl (S)-3-(8-bromo-6-(2-chlorophenyl)-1-((morpholinomethyl)thio)-4H-benzo[f][1,2,4]triazolo[4,3-a][1,4]diazepin-4-yl)propionate]			9.75	0.64
COC(=O)CC[C@@H]1N=C(c2ccccc2Cl)c2cc([N+](=O)[O-])ccc2-n2c(SCN3CCOCC3)nnc21 [Compound 101, methyl (S)-3-(8-nitro-6-(2-chlorophenyl)-1-((morpholinomethyl)thio)-4H-benzo[f][1,2,4]triazolo[4,3-a][1,4]diazepin-4-yl)propionate]			12.05	0.85
COC(=O)CC[C@@H]1N=C(c2ccccc2)c2cc(Br)ccc2-n2c(SC)nnc21 [Compound 103, methyl (S)-3-(8-bromo-1-(methylthio)-6-phenyl-4H-benzo[f][1,2,4]triazolo[4,3-a][1,4]diazepin-4-yl)propionate]			14.42	0.74
COC(=O)CC[C@@H]1N=C(c2ccccc2)c2cc([N+](=O)[O-])ccc2-n2c(SC)nnc21 [Compound 104, methyl (S)-3-(8-nitro-1-(methylthio)-6-phenyl-4H-benzo[f][1,2,4]triazolo[4,3-a][1,4]diazepin-4-yl)propionate]			9.78	0.77
COC(=O)CC[C@@H]1N=C(c2ccccc2)c2cc(Cl)ccc2-n2c(SCCN3CCOCC3)nnc21 [Compound 105, methyl (S)-3-(8-chloro-1-((2-morpholinoethyl)thio)-6-phenyl-4H-benzo[f][1,2,4]triazolo[4,3-a][1,4]diazepin-4-yl)propionate]	13.17	0.49	13.94	0.63
COC(=O)CC[C@@H]1N=C(c2ccccc2)c2cc(Br)ccc2-n2c(SCCN3CCOCC3)nnc21 [Compound 106, methyl (S)-3-(8-bromo-1-((2-morpholinoethyl)thio)-6-phenyl-4H-benzo[f][1,2,4]triazolo[4,3-a][1,4]diazepin-4-yl)propionate]	3.26	0.09	12.37	0.33
COC(=O)CC[C@@H]1N=C(c2ccccc2)c2cc([N+](=O)[O-])ccc2-n2c(SCCN3CCOCC3)nnc21 [Compound 107, methyl (S)-3-(8-nitro-1-((2-morpholinoethyl)thio)-6-phenyl-4H-benzo[f][1,2,4]triazolo[4,3-a][1,4]diazepin-4-yl)propionate]			13.64	0.45
COC(=O)CC[C@@H]1N=C(c2ccccc2)c2cc(Cl)ccc2-n2c(SCCCN(C)C)nnc21 [Compound 108, methyl (S)-3-(8-chloro-1-((3-(dimethylamino)propyl)thio)-6-phenyl-4H-benzo[f][1,2,4]triazolo[4,3-a][1,4]diazepin-4-yl)propionate]	11.73	0.59		
COC(=O)CC[C@@H]1N=C(c2ccccc2)c2cc(Br)ccc2-n2c(SCCCN(C)C)nnc21 [Compound 109, methyl (S)-3-(8-bromo-1-((3-(dimethylamino)propyl)thio)-6-phenyl-4H-benzo[f][1,2,4]triazolo[4,3-a][1,4]diazepin-4-yl)propionate]	13.27	0.97		
COC(=O)CC[C@@H]1N=C(c2ccccc2)c2cc([N+](=O)[O-])ccc2-n2c(SCCCN(C)C)nnc21 [Compound 110, methyl (S)-3-(8-nitro-1-((3-(dimethylamino)propyl)thio)-6-phenyl-4H-benzo[f][1,2,4]triazolo[4,3-a][1,4]diazepin-4-yl)propionate]	15.27	0.21	10.16	0.22
COC(=O)CC[C@@H]1N=C(c2ccccc2Cl)c2cc(Cl)ccc2-n2c(SCOP(=O)(O)O)nnc21 [Compound 111, methyl (S)-3-(8-chloro-6-(2-chlorophenyl)-1-(((phosphonooxy)methyl)thio)-4H-benzo[f][1,2,4]triazolo[4,3-a][1,4]diazepin-4-yl)propionate]			18.36	0.67
COC(=O)CC[C@@H]1N=C(c2ccccc2Cl)c2cc(Br)ccc2-n2c(SCOP(=O)(O)O)nnc21 [Compound 112, methyl (S)-3-(8-bromo-6-(2-chlorophenyl)-1-(((phosphonooxy)methyl)thio)-4H-benzo[f][1,2,4]triazolo[4,3-a][1,4]diazepin-4-yl)propionate]	12.62	0.46	19.21	0.78
COC(=O)CC[C@@H]1N=C(c2ccccc2Cl)c2cc([N+](=O)[O-])ccc2-n2c(SCOP(=O)(O)O)nnc21 [Compound 113, methyl (S)-3-(8-nitro-6-(2-chlorophenyl)-1-(((phosphonooxy)methyl)thio)-4H-benzo[f][1,2,4]triazolo[4,3-a][1,4]diazepin-4-yl)propionate]	9.49	0.58		
